Usually EC50 stands for the concentration that produces a half-maximal response.

The target of assay [1] is T1, rat TRPA1 (Rattus norvegicus, UniProt Q6RI86).
T1 construct: expressed in transfected cells; host or cells: HEK-293
Briefly: Ca2+-imaging assay with Fluo-4 AM. It is filed as cell-based. The settings on record: agonist effect, HEK-293 cells overexpressing rat TRPA1, Fluo-4 AM; read-out: EC50 or IC50, transient receptor potential A1. As to the method:
(§1) HEK-293 cells, stably overexpressing recombinant rat TRPM8 or rat TRPA1, were cultured as monolayers in 100 mm Petri dishes using Minimum Essential Media supplemented with 2 mM glutamine, 1% nonessential amino acids, 10% FBS, and maintained at 37 °C under 5% CO2. On the day of the experiment, both nontransfected and transfected HEK-293 cells were loaded for 1 h at room temperature in the dark with the calcium-sensitive fluorescent probe Fluo-4 AM (4 μM, dissolved in dimethyl sulfoxide with 0.02% Pluronic F-127). After loading, cells were washed twice with Tyrode’s solution (145 mM NaCl, 2.5 mM KCl, 1.5 mM CaCl2, 1.2 mM MgCl2, 10 mM D-glucose, 10 mM HEPES, pH 7.4) and transferred to a quartz cuvette (approximately 100,000 cells) in a spectrofluorometer (PerkinElmer LS50B; λEX = 488 nm, λEM = 516 nm) under continuous stirring. Fluorescence was recorded before and after the addition of various concentrations of test compounds. The observed effects were normalized to the response elicited by ionomycin (4 μM). Baseline fluorescence values from nontransfected HEK-293 cells were subtracted from the measurements obtained in transfected cells. The potency of the test compounds was expressed as the concentration required to elicit a half-maximal agonist effect (EC50), measured as half-maximal increases in intracellular calcium concentration ([Ca^2+]-i). The efficacy of TRPA1 agonists was reported as a percentage of the maximal effect induced by allyl isothiocyanate (AITC, 100 μM). Antagonistic or desensitizing effects were assessed by preincubating cells with the test compounds in the quartz cuvette for 5 min before stimulating them with the specific TRP agonist (AITC, 100 μM for TRPA1, or icilin, 0.25 μM for TRPM8). IC50 values were determined as the concentration required to produce a half-maximal inhibition of the agonist effect, with the agonist-induced [Ca^2+]-i response set at 100%. Measurements of [Ca^2+]-i in TRPM8-expressing cells were conducted at 22 °C using a Fluorescence Peltier System (PTP-1, PerkinElmer). All experiments were performed in triplicate or greater. Curve fitting (sigmoidal concentration–response with variable slope) and parameter estimation were conducted using GraphPad Prism 10 (GraphPad Software Inc., San Diego, CA).

Assay [2] addresses T2, rat TRPM8 (Rattus norvegicus, UniProt Q8R455).
T2 construct: expressed in transfected cells; host or cells: HEK-293
Briefly: Ca2+-imaging assay with Fluo-4 AM. It is filed as cell-based. As to conditions: inhibition of icilin 0.25 μM, HEK-293 cells overexpressing rat TRPM8, Fluo-4 AM; read-out: EC50 or IC50, transient receptor potential M8. How it is done: as §1

The target of assay [3] is T3, Poly [ADP-ribose] polymerase 1 (Homo sapiens, UniProt P09874).
T3 construct: purchased BPS Bioscience
The assay can be described thus: PARP1 Colorimetric Assay Kit (BPS Bioscience). As to conditions: top concentration 30 μM; read-out: EC50 or IC50, Poly [ADP-ribose] polymerase 1. It is filed as biochemical. How it is done:
The assay was performed in a volume of 50 μL in 96-well transparent plates. The PARP1 assay kit (BPS Bioscience, USA) was performed by first coating the 96-well plate with histone proteins, then left at 4 °C overnight. Next, Poly [ADP-ribose] polymerase 1 (PARP1) enzyme (final concentration, 0.33 ng per reaction), a mixture of biotinylated NAD^+ (PARP substrate) and compounds were incubated for 1 h at room temperature. The compounds were added at different concentrations in the reaction buffer, starting from a final concentration of 30 μM. Buffer with the same amount of DMSO (1%) was used as a negative control. After incubation, the plate was treated with streptavidin-HRP followed by the addition of the colorimetric HRP substrate generating a colored solution. The generated signal was read at an absorbance of 450 nm using a microplate reader with UV/vis spectrophotometer (Multiskan Go, Thermo Fisher Scientific, Waltham, MA, USA). Experiments were performed in triplicate. IC50 values were calculated with GraphPad Prism 8.0 software by nonlinear dose–response inhibition regression.

The target of assay [4] is T4, Fibroblast Growth Factor Receptor 1 (FGFR1) (Homo sapiens, UniProt P11362).
T4 construct: Eurofins (contract assay)
T4 sequence (P11362 22-822): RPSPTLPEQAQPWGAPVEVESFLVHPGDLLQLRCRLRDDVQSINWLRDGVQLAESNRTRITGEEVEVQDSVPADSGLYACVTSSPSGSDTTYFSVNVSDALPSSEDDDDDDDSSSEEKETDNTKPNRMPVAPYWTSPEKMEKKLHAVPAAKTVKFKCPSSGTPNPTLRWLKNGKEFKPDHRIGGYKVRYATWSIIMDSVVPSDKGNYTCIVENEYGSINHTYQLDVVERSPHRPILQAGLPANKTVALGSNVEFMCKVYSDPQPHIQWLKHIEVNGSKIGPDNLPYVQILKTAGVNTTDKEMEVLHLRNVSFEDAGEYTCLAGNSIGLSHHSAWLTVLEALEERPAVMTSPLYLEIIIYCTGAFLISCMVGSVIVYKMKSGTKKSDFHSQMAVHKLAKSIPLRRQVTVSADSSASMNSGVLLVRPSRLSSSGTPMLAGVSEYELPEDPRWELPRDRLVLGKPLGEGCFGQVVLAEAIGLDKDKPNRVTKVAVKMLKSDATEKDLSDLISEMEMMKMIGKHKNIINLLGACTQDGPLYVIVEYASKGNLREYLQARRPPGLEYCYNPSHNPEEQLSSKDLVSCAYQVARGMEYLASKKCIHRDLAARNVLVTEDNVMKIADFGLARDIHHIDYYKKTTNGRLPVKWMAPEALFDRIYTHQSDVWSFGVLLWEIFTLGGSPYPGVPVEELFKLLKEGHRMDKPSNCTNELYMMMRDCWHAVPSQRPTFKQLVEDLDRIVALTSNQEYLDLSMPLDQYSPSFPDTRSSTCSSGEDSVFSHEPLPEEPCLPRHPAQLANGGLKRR
The assay can be described thus: Kinase Enzymatic Radiometric [10 uM ATP] KinaseProfiler LeadHunter Assay. The class given is biochemical. The settings on record: Eurofins, read-out: EC50 or IC50, FGFR1. An excerpt: (§2) For displacement assays on G-protein coupled receptor 55 (GPR55), Vasopressin V2 receptor (V2R), Adenosine A1 receptor (A1AR), Fibroblast growth factor receptor 1 (FGFR1), Vascular endothelial growth factor receptor 2 (VEGFR2), Platelet-derived growth factor receptor beta (PDGFRB), Vascular endothelial growth factor receptor 1 (VEGFR1), Thromboxane Synthase (TXS) and Phosphodiesterase 10A (PDE10A), we commissioned the Eurofins company which employed its specific experimental methods, accessible at the link: https://www.eurofins.com/.

The target of assay [5] is T5, Platelet-Derived Growth Factor Receptor-Beta (PDGFRB) (Homo sapiens, UniProt P09619).
T5 construct: Eurofins (contract assay)
Described as above. It is filed as biochemical. The settings on record: Eurofins, read-out: EC50 or IC50, PDGFRB.
Description: as §2

The target in assay [6] is T6, Vascular Endothelial Growth Factor Receptor (VEGFR-2)/KDR (Homo sapiens, UniProt P35968).
T6 construct: Eurofins (contract assay)
T6 sequence (P35968 20-1356): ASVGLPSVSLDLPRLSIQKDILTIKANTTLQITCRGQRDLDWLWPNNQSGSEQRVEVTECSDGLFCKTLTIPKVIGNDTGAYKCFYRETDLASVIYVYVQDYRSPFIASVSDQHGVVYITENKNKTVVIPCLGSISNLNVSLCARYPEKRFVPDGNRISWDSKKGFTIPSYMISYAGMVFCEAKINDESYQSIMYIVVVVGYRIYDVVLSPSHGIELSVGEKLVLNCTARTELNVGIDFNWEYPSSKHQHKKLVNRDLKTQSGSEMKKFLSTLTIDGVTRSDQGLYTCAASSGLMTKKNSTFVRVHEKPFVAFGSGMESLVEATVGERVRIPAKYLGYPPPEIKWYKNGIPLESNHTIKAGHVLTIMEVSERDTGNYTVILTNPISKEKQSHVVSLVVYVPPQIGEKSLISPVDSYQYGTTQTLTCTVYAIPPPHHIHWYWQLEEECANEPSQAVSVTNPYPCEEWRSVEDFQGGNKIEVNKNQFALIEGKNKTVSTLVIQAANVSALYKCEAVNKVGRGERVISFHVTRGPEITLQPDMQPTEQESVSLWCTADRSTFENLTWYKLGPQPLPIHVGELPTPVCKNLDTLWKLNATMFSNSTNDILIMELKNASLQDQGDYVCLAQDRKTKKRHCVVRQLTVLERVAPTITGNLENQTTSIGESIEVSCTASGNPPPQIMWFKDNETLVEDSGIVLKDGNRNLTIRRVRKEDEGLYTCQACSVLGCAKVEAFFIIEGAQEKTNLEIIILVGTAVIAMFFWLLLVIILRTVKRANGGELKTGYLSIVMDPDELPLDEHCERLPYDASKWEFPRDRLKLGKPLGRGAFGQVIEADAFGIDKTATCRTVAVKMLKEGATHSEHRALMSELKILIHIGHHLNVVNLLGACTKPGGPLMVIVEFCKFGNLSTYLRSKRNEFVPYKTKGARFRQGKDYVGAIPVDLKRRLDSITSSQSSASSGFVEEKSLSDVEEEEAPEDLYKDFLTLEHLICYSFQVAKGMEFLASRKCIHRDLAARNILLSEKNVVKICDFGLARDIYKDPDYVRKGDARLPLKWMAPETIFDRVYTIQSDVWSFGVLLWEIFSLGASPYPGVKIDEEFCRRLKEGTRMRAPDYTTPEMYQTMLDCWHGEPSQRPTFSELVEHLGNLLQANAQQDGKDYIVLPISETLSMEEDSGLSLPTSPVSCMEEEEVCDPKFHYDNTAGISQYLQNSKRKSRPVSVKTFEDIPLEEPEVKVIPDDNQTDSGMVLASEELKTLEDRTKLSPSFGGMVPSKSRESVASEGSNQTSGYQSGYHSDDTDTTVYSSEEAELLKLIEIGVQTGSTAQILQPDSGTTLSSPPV
Described as above. As to conditions: Eurofins, read-out: EC50 or IC50, VEGFR-2/KDR. The class given is biochemical.
Description: as §2

Assay [7] deals with T7, Vascular Endothelial Growth Factor Receptor-1 Flt-1 (VEGFR1) (FLT1) (Homo sapiens, UniProt P17948).
T7 construct: Eurofins (contract assay)
T7 sequence (P17948 27-1338): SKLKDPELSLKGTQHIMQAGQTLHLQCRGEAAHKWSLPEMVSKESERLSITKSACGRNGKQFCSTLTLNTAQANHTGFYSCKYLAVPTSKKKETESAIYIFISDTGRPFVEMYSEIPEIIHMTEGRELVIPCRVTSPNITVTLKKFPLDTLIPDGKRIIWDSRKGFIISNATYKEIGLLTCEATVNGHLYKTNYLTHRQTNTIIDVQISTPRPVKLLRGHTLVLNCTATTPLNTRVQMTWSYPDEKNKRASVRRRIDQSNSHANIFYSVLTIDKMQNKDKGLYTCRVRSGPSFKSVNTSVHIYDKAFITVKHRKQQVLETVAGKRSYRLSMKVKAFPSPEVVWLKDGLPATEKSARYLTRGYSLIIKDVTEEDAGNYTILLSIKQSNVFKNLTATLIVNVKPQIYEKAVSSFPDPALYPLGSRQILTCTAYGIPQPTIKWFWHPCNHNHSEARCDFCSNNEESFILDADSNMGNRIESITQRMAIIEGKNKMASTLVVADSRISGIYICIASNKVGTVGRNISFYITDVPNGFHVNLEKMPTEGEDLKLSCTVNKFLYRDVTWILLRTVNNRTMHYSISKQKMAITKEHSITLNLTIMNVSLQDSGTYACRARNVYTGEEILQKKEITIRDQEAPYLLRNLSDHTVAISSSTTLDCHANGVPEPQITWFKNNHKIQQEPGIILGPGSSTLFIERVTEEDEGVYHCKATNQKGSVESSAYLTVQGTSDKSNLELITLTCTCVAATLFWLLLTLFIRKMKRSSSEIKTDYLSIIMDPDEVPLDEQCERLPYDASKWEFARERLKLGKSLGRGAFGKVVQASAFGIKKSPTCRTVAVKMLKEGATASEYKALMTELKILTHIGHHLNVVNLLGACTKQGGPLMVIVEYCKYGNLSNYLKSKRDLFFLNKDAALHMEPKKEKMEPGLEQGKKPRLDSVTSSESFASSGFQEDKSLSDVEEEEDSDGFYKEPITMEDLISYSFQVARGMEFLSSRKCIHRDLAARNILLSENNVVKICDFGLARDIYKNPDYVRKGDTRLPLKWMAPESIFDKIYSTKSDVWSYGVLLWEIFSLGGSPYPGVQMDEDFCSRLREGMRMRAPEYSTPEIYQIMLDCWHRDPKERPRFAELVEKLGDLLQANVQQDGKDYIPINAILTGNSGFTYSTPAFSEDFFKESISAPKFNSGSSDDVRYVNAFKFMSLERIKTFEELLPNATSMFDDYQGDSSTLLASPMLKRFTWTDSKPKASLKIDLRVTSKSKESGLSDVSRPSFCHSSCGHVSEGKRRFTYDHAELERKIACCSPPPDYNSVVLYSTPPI
The description is as above. It is filed as biochemical. The settings on record: Eurofins, read-out: EC50 or IC50, VEGFR1 (FLT1).
Description: as §2

The target in assay [8] is T8, G-protein coupled receptor 55 (Homo sapiens, UniProt Q9Y2T6).
T8 construct: Eurofins (contract assay)
T8 sequence (Q9Y2T6 whole entry): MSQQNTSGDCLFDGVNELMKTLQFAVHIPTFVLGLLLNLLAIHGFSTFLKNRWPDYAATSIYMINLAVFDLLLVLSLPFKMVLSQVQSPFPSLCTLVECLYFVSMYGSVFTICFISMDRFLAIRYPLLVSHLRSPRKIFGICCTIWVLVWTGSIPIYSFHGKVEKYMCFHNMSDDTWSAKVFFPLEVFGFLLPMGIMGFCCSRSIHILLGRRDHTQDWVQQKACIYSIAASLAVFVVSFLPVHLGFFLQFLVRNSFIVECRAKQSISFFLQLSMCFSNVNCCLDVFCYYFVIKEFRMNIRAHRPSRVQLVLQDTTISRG
The assay can be described thus: Cell Based Agonist Arrestin LeadHunter Assay. As to conditions: Eurofins, read-out: EC50 or IC50, G-protein coupled receptor 55, agonist mode.
Description: as §2

Assay [9] relates to A375 cells. Briefly: Intracellular ROS measurement (DCFH-DA). The class given is cell-based, human. As to conditions: 10, 5, 2.5 μM for 2–8 h. How it is done: Cells were treated with compounds 31 and 63 (10, 5, and 2.5 μM) for 2–8 h, and ROS levels were subsequently measured.
The intracellular ROS generation was detected using 10 μM DCFH-DA. This compound is oxidized by ROS to fluorescent […] (DCF) inside the cells. A375 cells were seeded (5 × 10^3 cells/well) in a volume of 100 μL per well in black 96-well OptiPlate (PerkinElmer, USA), allowing them to adhere for 24 h. After, the cells were incubated for 2, 4, and 8 h with compounds (10, 5, and 2.5 μM). Subsequently, the cells were washed twice with PBS and a staining solution containing DCFH-DA in serum-free medium without phenol red was added for 30 min at 37 °C in the dark. The stained cells were washed, and the fluorescence signals (excitation/emission 485 nm/535 nm) were read using a PerkinElmer EnSpire multimode plate reader and expressed as DCFH fluorescence intensity.

T2 sequence (Q8R455 whole entry): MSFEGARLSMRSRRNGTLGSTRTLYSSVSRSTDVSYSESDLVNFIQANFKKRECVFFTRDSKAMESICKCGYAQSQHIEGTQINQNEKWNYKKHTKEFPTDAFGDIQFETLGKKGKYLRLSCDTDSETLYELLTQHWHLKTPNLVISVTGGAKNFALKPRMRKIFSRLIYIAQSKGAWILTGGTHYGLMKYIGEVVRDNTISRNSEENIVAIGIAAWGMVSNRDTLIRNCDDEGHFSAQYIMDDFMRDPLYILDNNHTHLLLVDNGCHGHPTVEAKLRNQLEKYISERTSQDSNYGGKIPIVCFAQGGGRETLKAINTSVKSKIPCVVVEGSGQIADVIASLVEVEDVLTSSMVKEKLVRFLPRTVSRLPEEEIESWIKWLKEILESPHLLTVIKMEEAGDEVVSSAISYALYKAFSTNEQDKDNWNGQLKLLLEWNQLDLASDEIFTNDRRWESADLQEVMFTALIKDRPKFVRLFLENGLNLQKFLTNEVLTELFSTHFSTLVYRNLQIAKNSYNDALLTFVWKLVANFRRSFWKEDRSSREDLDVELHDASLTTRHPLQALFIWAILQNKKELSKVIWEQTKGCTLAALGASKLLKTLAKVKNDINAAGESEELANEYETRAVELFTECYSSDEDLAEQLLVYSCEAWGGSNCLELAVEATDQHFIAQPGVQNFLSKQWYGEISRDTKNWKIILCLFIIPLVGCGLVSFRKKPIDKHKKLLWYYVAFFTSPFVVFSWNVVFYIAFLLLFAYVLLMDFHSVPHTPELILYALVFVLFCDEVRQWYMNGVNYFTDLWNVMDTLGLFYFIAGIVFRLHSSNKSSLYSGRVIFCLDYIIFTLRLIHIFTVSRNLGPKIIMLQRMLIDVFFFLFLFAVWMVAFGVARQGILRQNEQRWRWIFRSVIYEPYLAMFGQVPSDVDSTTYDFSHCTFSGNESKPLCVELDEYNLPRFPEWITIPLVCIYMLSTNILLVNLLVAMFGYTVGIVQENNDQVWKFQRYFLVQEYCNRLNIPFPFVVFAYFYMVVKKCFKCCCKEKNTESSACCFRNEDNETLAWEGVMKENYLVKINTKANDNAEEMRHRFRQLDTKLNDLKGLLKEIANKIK

`CC(C)C[C@H]1C(=O)N(Cc2ccc(C(F)(F)F)cc2)c2ccccc2C(=O)N1Cc1ccc(C(F)(F)F)cc1` [Compound 31, (S)-3-Isobutyl-1,4-bis(4-(trifluoromethyl)benzyl)-3,4-dihydro-1H-benzo[e][1,4]diazepine-2,5-dione]: the EC50 was 0.2 ± 0.09 µM in assay [1] and at least 30 µM in [8]. Also, the IC50 in assay [2] was above 30 µM; in [3], above 30 µM; in assay [4], at least 30 µM; in [5], at least 30 µM; in assay [6], at least 30 µM; in [7], at least 30 µM. The “intracellular ROS levels” value in assay [9] was “significant concentration-dependent increase in ROS levels”.
For the compound `CC(C)C[C@@H](C(=O)OCc1ccccc1)N1Cc2ccccc2NC1=O` [Compound 63, Benzyl (S)-4-Methyl-2-(2-oxo-1,4-dihydroquinazolin-3(2H)-yl)pentanoate], the EC50 is 2.54 ± 1.2 µM in [1] and at least 30 µM in assay [8]. The IC50 in [2] was 0.36 ± 0.08 µM; in assay [3], above 30 µM; in assay [4], at least 30 µM; in assay [5], at least 30 µM; in assay [6] it was at least 30 µM; in [7] it was at least 30 µM. Further, the “intracellular ROS levels” value in assay [9] is “delayed and more moderate effect than compound 31”.

Source of the values: publication PMC12362587, “Untargeted Diversity-Oriented Synthesis for the Discovery of New Antitumor Agents: An Integrated Approach of Inverse Virtual Screening, Bioinformatics, and Omics for Target Deconvolution” (Journal of Medicinal Chemistry, 2025).
